Reference: ChEMBL document CHEMBL5303304, “EUbOPEN Chemogenomics Library - IncuCyte” (2023)

Columns and labels:
Format in all cases: toxicity, cell-based
U2OS = assay: Incucyte cell viability with U2OS; conditions: human, 10 µM, compound concentration 10 uM
Fibroblast = assay: Incucyte cell viability with human fibroblast; conditions: 10 µM, compound concentration 10 uM
HEK-293T = assay: Incucyte cell viability with HEK293T; conditions: human, 10 µM, compound concentration 10 uM
Also: unitless GR value; below 1 slowed growth and below 0 cell loss.

Row | Compound | Growth Rate (U2OS; 0 h, replicate number 1) | Growth Rate (U2OS; 0 h, replicate number 2) | Growth Rate (U2OS; 6 h, replicate number 1) | Growth Rate (U2OS; 6 h, replicate number 2) | Growth Rate (U2OS; 12 h, replicate number 2) | Growth Rate (U2OS; 24 h, replicate number 2) | Growth Rate (Fibroblast; 0 h, replicate number 2) | Growth Rate (Fibroblast; 6 h, replicate number 1) | Growth Rate (Fibroblast; 12 h, replicate number 1) | Growth Rate (Fibroblast; 18 h, replicate number 1) | Growth Rate (Fibroblast; 24 h, replicate number 1) | Growth Rate (HEK-293T; 0 h, replicate number 1) | Growth Rate (U2OS; 12 h, replicate number 1) | Growth Rate (U2OS; 18 h, replicate number 1) | Growth Rate (U2OS; 24 h, replicate number 1) | Growth Rate (Fibroblast; 6 h, replicate number 2) | Growth Rate (Fibroblast; 12 h, replicate number 2) | Growth Rate (Fibroblast; 18 h, replicate number 2) | Growth Rate (HEK-293T; 6 h, replicate number 2) | Growth Rate (HEK-293T; 12 h, replicate number 1) | also measured
1 | O=C(O)CCCCN(CCc1cc(F)ccc1OCc1ccc(-c2ccc(C(F)(F)F)cc2)cc1)Cc1ccc(C(=O)O)cc1 | 0.99 | -0.4 | 0.61 | 0.58 | 0.87 | 0.91 | -0.98 | 0.59 | 0.66 | 0.85 | 0.96 | 0.09 |  |  |  |  |  |  |  |  | Growth Rate (U2OS; 18 h, replicate number 2): 0.85; Growth Rate (Fibroblast; 0 h, replicate number 1): -1; Growth Rate (HEK-293T; 0 h, replicate number 2): -0.87
2 | Cc1ccc(-n2nc(C(C)(C)C)cc2NC(=O)Nc2ccccc2F)cc1 |  | -0.52 | 0.9 | 0.67 | 0.72 | 0.85 |  | -0.08 | 0.68 | 0.86 | 0.91 | -0.4 | 0.91 | 0.79 | 0.72 | 0.02 | 0.82 |  |  |  | 
3 | CS(=O)(=O)NC(=O)CCC/C=C\C[C@H]1C(=O)C[C@@H](O)[C@@H]1/C=C/[C@@H](O)COc1ccccc1 [SULPROSTONE] | 0.72 | 0.8 | 0.89 | 0.91 | 0.91 | 0.94 | -0.81 | 0.27 | 0.85 | 0.95 | 0.79 | 0.99 | 0.97 | 0.83 | 0.87 | 0.85 | 0.39 | 0.47 | 0.91 | 0.92 | Growth Rate (Fibroblast; 0 h, replicate number 1): -1; Growth Rate (Fibroblast; 24 h, replicate number 2): 0.63; Growth Rate (HEK-293T; 0 h, replicate number 2): 0.72; Growth Rate (HEK-293T; 18 h, replicate number 1): 0.99
4 | CC(C=CC1=C(C)CCCC1(C)C)=CC=CC(C)=CC(=O)O | 0.58 | 0.8 | 0.77 | 0.93 |  | 0.99 | 0.82 |  |  |  |  | 0.11 | 0.3 | 0.67 | 0.87 | 0.99 | 0.99 |  | 0.82 |  | Growth Rate (HEK-293T; 0 h, replicate number 2): -0.77; Growth Rate (HEK-293T; 12 h, replicate number 2): 0.99; Growth Rate (HEK-293T; 18 h, replicate number 1): 0.94; Growth Rate (HEK-293T; 18 h, replicate number 2): 0.73; Growth Rate (HEK-293T; 24 h, replicate number 1): 0.95; Growth Rate (HEK-293T; 24 h, replicate number 2): 0.58
5 | CCOC(=O)c1cncn1[C@H](C)c1ccccc1 [ETOMIDATE] | 0.35 | -0.28 |  | 0.83 |  |  | 0.93 |  |  | 0.21 | -0.16 |  | 0.97 | 0.9 | 0.98 |  |  |  |  |  | Growth Rate (U2OS; 18 h, replicate number 2): 0.87; Growth Rate (Fibroblast; 0 h, replicate number 1): 0.28; Growth Rate (HEK-293T; 6 h, replicate number 1): 0.68
6 | CN1CCN(c2ccc(-n3cc(-c4ccncc4OCC4CCNCC4)cn3)cc2)CC1 |  | 0.97 |  | 0.51 | 0.4 | 0.16 | 0.21 | 0.93 | 0.81 | 0.68 | 0.62 | -0.6 | 0.92 | 0.69 | 0.53 | 0.33 | 0.22 | 0.19 | -0.17 | 0.02 | Growth Rate (U2OS; 18 h, replicate number 2): 0.31; Growth Rate (Fibroblast; 0 h, replicate number 1): 0.3; Growth Rate (Fibroblast; 24 h, replicate number 2): 0.28; Growth Rate (HEK-293T; 6 h, replicate number 1): -0.15; Growth Rate (HEK-293T; 12 h, replicate number 2): 0.09; Growth Rate (HEK-293T; 18 h, replicate number 1): 0.14; Growth Rate (HEK-293T; 18 h, replicate number 2): 0.13; Growth Rate (HEK-293T; 24 h, replicate number 1): 0.11; Growth Rate (HEK-293T; 24 h, replicate number 2): 0.07
7 | C=CC(=O)Nc1ccc(C(=O)Nc2n[nH]c3c2CN(C(=O)N[C@H](CN(C)C)c2ccccc2)C3(C)C)cc1 | -1 |  |  | 1 | -0.41 |  | -0.72 |  | 0.56 | 0.18 | 0.19 | -0.5 |  | 0.84 | 0.76 | 0.71 | 0.45 | 0.06 | -0.51 | 0.02 | Growth Rate (U2OS; 18 h, replicate number 2): 0.97; Growth Rate (Fibroblast; 24 h, replicate number 2): -0.02; Growth Rate (HEK-293T; 6 h, replicate number 1): 0.11; Growth Rate (HEK-293T; 12 h, replicate number 2): -0.3; Growth Rate (HEK-293T; 18 h, replicate number 1): 0.02; Growth Rate (HEK-293T; 18 h, replicate number 2): -0.27; Growth Rate (HEK-293T; 24 h, replicate number 1): 0.03; Growth Rate (HEK-293T; 24 h, replicate number 2): -0.16
8 | COc1cc([N+](=O)[O-])ccc1NC(=O)c1ccccc1O | 0.1 | -0.67 | 0.2 | 0.94 | 0.63 | 0.55 | 0.04 | -0.98 |  |  |  |  | 0.27 | 0.4 | 0.48 |  | 0.57 | 0.65 | -0.12 | -0.12 | Growth Rate (U2OS; 18 h, replicate number 2): 0.46; Growth Rate (Fibroblast; 24 h, replicate number 2): 0.64; Growth Rate (HEK-293T; 0 h, replicate number 2): 0.91; Growth Rate (HEK-293T; 6 h, replicate number 1): -0.49; Growth Rate (HEK-293T; 12 h, replicate number 2): -0.05; Growth Rate (HEK-293T; 18 h, replicate number 1): -0.01; Growth Rate (HEK-293T; 18 h, replicate number 2): -0.02; Growth Rate (HEK-293T; 24 h, replicate number 1): 0.08; Growth Rate (HEK-293T; 24 h, replicate number 2): -0.01
9 | O=C(NCCN1CCOCC1)c1ccc2nn(CCOc3ccc(Cl)cc3)cc2c1 |  | 0.25 | 0.71 | 0.98 | 0.88 |  | -0.92 | 0.63 |  | 0.86 | 0.92 | 0.54 |  |  | 0.93 | 0.87 | 0.78 | 0.98 | 0.26 | 0.82 | Growth Rate (Fibroblast; 0 h, replicate number 1): -1; Growth Rate (HEK-293T; 0 h, replicate number 2): 0.3; Growth Rate (HEK-293T; 6 h, replicate number 1): 0.47; Growth Rate (HEK-293T; 12 h, replicate number 2): 0.18; Growth Rate (HEK-293T; 18 h, replicate number 1): 0.71; Growth Rate (HEK-293T; 18 h, replicate number 2): 0.47; Growth Rate (HEK-293T; 24 h, replicate number 1): 0.72; Growth Rate (HEK-293T; 24 h, replicate number 2): 0.61
10 | CC(=O)Nc1nc(C)c(S(=O)(=O)Nc2ccc(C(O)(C(F)(F)F)C(F)(F)F)cc2)s1 | -0.47 |  | 0.76 |  |  |  | 0.65 |  | 0.45 | 1 |  | 0.65 | 0.61 | 0.74 | 0.79 | 0.51 | 0.84 | 0.9 |  | 0.86 | Growth Rate (HEK-293T; 6 h, replicate number 1): 0.85; Growth Rate (HEK-293T; 12 h, replicate number 2): 0.89; Growth Rate (HEK-293T; 18 h, replicate number 2): 0.85; Growth Rate (HEK-293T; 24 h, replicate number 2): 0.78
